Test results taken from patent US20150225377A1, “VEGFR3 INHIBITORS” (CANCER THERAPEUTICS CRC PTY LIMITED, priority 2012, published 2015).

What was measured:
[1] = target: T1, VEGFR3 cytoplasmic domain (Homo sapiens, UniProt P35916); assay: VEGFR3 biochemical assay (AlphaScreen); conditions: GST-VEGFR3 cytoplasmic domain, 500 μM ATP (modified form: His-fusion, 1 μM ATP)
T1 construct: VEGFR3 cytoplasmic domain (amino acids 798-1298) was purchased as N-terminal GST-fusion protein; GST (N); purchased
Description: Compounds of the invention may be tested for in vitro activity in the following assay: A biotin labelled peptide is used as substrate (amino acid sequence: Biotin-[…]NH2). VEGFR3 cytoplasmic domain (amino acids 798-1298) was purchased as N-terminal GST-fusion protein (“the enzyme”). The 15 μL assay reactions are run in Greiner brand white 384-well low volume plates. All reactions contained 10 mM HEPES pH 7.4, 10 mM MgCl2, 0.01% (v/v) Tween-20, 50 μM Na3VO4, 0.01% (w/v) albumin from chicken egg white, 1 mM Dithiothreitol, 111 nM peptide substrate, 500 μM ATP, and 3.8 ng/reaction enzyme, with the enzyme being omitted from negative control reactions. Compounds were added in a volume of […] from dilution series prepared in DMSO, positive and negative control reactions receiving the same volume DMSO without compound. The plates were sealed with adhesive seals and incubated for 90 minutes at 30 degree Celsius. The reactions were stopped with the detection reagents added at the same time as follows: Product formation was quantified as amplified luminescence between PerkinElmer AlphaScreen™ beads, using Streptavidin-coated donor and anti-phosphotyrosine (P-Tyr-100) acceptor beads. To each reaction, 5 μL containing 10 mM HEPES pH 7.4, 25 mM NaCl, 100 mM EDTA, 0.01% (v/v) Tween-20, and 6.25 μg/mL of each bead type were added. Plates were incubated for 6 hours before being read on a PerkinElmer EnVision™ plate reader in HTS Alphascreen™ mode. IC50 values were obtained by calculating percent inhibition (% I) for each reaction relative to controls on the same plate (% I=(I-CN)/(CP-CN) where CN/CP are the averages of the negative/positive reactions, respectively), then fitting the % I data vs. compound concentration [I] to % I=(A+((B−A)/(1+((C/[I])̂D)))) where A is the lower asymptote, B is the upper asymptote, C is the IC50 value, and D is the slope factor.
The above assay was also run in a modified form in some cases (indicated below with *). In these cases, VEGFR3 cytoplasmic domain (amino acids 818-1177, lacking 949-1002 of UniProt accession number P35916) was expressed and purified as N-terminal Hexa-His-fusion protein (“the enzyme”), rather than using the N-terminal GST-fusion protein. The assay conditions were the same as above but with 1 μM ATP and 8 ng/reaction of the enzyme.

VEGFR3 = target: T2, VEGFR3 (Homo sapiens, UniProt P35916); assay: VEGFR3 Phospho ELISA assay in HMVEC-dLyAD cells, VEGFC stimulated; format: cell-based; conditions: 1 hour compound, 250 ng/mL VEGFC 10 minutes
T2 construct: host or cells: HMVEC-dLyAD
Description: Adult human dermal lymphatic microvascular endothelial cells (HMVEC-dLyAD) (Cat#CC-2810, Lonza) were seeded into clear-bottom, TC treated 12 well plates (Cat #665180, Greiner Bio-One) in EGM-2MV (Cat#CC-3202, Lonza) at 180,000 cells/well (volume 1 mL), and the plates incubated at 37° C. and 5% CO2 for 6 hours. The media was replaced with EBM-2 (Cat #CC-3156, Lonza)+0.1% BSA (Cat#A8412, Sigma) and cells incubated for a further period (overnight at 37° C. and 5% CO2).
96 well Maxisorp immuno plates (Cat #439454, Nunc) were coated with 100 μL of Total VEGFR3 capture antibody (Part #841888, Human Total VEGFR3/FLT4 ELISA Kit, Cat #DYC3491, R&D Systems), or Phospho VEGFR3 Capture antibody (Part #841885, Human Phospho VEGFR3/FLT4 ELISA Kit, Cat#DYC2724, R&D Systems). The plates were covered and incubated at room temperature overnight.
The coating antibody was flicked out and the plates washed three times with Wash Buffer (Phosphate buffered saline (137 mM NaCl, […], […], […], pH 7.2-7.4), 0.05% Tween 20). 300 μL of blocking buffer (5% v/v Tween 20, 5% w/v sucrose in PBS) was then added to wells and plate incubated for 2 hours at room temperature. Blocking solution is flicked out and plates washed three times and tapped dry.
Compound dilution series were prepared in EBM-2 (Cat #CC-3156, Lonza)+0.1% BSA (Cat#A8412, Sigma) with constant 0.1% DMSO concentration. 439 μL of sample or vehicle control was added to the cell monolayers. Cells are treated for 1 hour at 37° C. and 5% CO2. 250 ng/mL Recombinant human VEGFC (Cat #2179-VC, R & D Systems) added to wells and plates incubated for an additional 10 minutes at 37° C. and 5% CO2.
The media and compounds were removed and the cell monolayer washed once in Dulbecco's Phosphate Buffered Saline (Cat #21600-044, Invitrogen). 130 μL of Lysis buffer added to wells and cell lysate harvested and transferred to tubes and stored on ice. Complete lysis buffer was prepared by adding 10 μL Protease Inhibitor Cocktail (Cat #P8340, Sigma-Aldrich), 10 μL PMSF (Phenylmethanesulfonyl fluoride, Cat #P7626, Sigma-Aldrich, prepared as 500 mM DMSO stock) per 1 mL of Phosphosafe™ Extraction Reagent (Cat #71296, Merck).
The harvested samples were then diluted 1:2 in IC Diluent #18 (5% Tween 20/PBS) and 100 μL transferred to the Total and Phospho VEGFR3 coated, blocked and washed 96 well plates and incubated for 2 hours at room temperature. The plates were then washed three times in wash buffer as described above and tapped dry.
For detection of Total VEGFR3100 μL of Detection antibody (Total VEGFR3 Detection Antibody Part#841888 in Total VEGFR3 kit) diluted in IC Diluent #1 (1% w/v BSA (Cat #A7906, Sigma-Aldrich)/PBS) was added to wells and the plate incubated for 2 hours at room temperature. The plate was then washed three times in wash buffer and tapped dry. 100 μL of streptavidin-HPR diluted in IC diluent #1 Streptavidin-HRP, Part #890803 in Total VEGFR3 kit) was added to wells and incubated at room temperature for 20 minutes followed by washing as described above 100 μL Substrate solution (3,3′,5,5′-Tetramethylbenzidine (TMB) Liquid Substrate System for ELISA, Cat #T0440, Sigma-Aldrich) was added and the plate incubated for 20 minutes in the dark at room temperature followed by the addition of 50 μL stop solution (2 M H2SO4).
Total VEGFR3 levels were quantified using a Multiskan Ascent plate reader and Ascent software fitted with 450 nm filter.
For detection of Phospho VEGFR3, 100 μL of Detection antibody (Anti-Phospho-Tyrosine-HRP Detection Antibody, Part #841403 in Phospho VEGFR3 kit) was diluted in IC Diluent #1 (1% w/v BSA/PBS), added to the wells and the plate incubated for 2 hours at room temperature. The plate was then washed three times in wash buffer as described above and tapped dry. […]

P397Y-FAK = target: T3, P397Y-FAK (Homo sapiens, UniProt Q05397); assay: P397Y-FAK inhibition MSD platform cellular biomarker assay; format: cell-based; conditions: MDA-231-LNA cells, 1 hour compound
T3 construct: endogenous in cells; host or cells: MDA-231-LNA
Description: 96-well plates (cat#MA6000, Meso Scale Discovery) are coated with 30 μL/well of mouse monoclonal FAK antibody [63D5] (cat#ab72140, Abcam) pre-diluted in PBS to a concentration of 1 mg/mL. The plates are sealed with adhesive film and incubated for 16 hours at 4° C. The antibody is then flicked out of the plates and 150 μL of 3% [w/v] Blocker A (cat#R93AA-1, Meso Scale Discovery) is added. The plates are resealed with adhesive film and incubated at room temperature on a shaker set at medium speed for 2 hours. The plates are then washed three times with a solution containing 50 mM Tris-HCl pH 7.5, 0.15 M NaCl and 0.02% Tween-20, before cell lysate addition described below.
Cells are split 1:2 into T150 cell culture flasks 2 days prior to compound treatment. On the day prior to compound treatment, 200 μL media containing 20,000 cells is seeded into all wells of white, clear-bottom, TC treated, pclear, 96-well microtitre plates (cat#655098, Greiner Bio-One), and the plates are incubated at 37° C. and 5% CO2 for […]. 1 pUwell of compound is then added from dilution series prepared in DMSO. Negative control wells receive the same volume of DMSO without compounds, and positive control wells receive 2 μM of a control compound in the same volume of DMSO. Cells are treated for 1 hour at 37° C. and 5% CO2. The media/compounds are then flicked off and 55 pUwell of ice-cold complete lysis buffer is added. Complete lysis buffer is prepared by adding 1 tablet PhosSTOP complete phosphatase inhibitor (cat#04906837001, Roche) and 1 tablet Complete, Mini, EDTA-free, protease inhibitor (cat#04693159001, Roche) per 10 mL of incomplete lysis buffer (150 mM NaCl, 20 mM Tris-HCl pH 7.5, 1 mM EDTA, 1 mM EGTA, 1% Triton-X 100). Plates are incubated on ice for 30 minutes, with 30 seconds high speed plate shaking every 5 minutes. 40 μL/well of cell lysate is transferred to the coated, blocked and washed 96-well microtitre plates described above. The 96-well plates are sealed with adhesive film and incubated for 16 hours at 4° C. The plates are then washed three times with a solution containing 50 mM Tris-HCl pH 7.5, 0.15 M NaCl and 0.02% Tween-20 and tapped dry. 25 μL/well of detection solution (1% [w/v] Blocker A (cat#R93AA-1, Meso Scale Discovery) in 50 mM Tris-HCl pH 7.5, 0.15 M NaCl and 0.02% Tween-20, with 1:600 rabbit polyclonal FAK phospho Y397 antibody (cat#ab39967, Abcam), 1:1000 anti-rabbit sulfo-tag antibody (cat#R32AB-1 Meso Scale Discovery) and 1:40 reconstituted Blocker D-M (cat#D609-0100, Rockland Immunochemicals for Research)) is added, and the plates resealed with adhesive film and incubated for 1 hour at room temperature on a plate shaker set to medium speed. Plates are then washed three times with a solution containing 50 mM Tris-HCl pH 7.5, 0.15 M NaCl and 0.02% Tween-20 and tapped dry. 150 μL/well of Read Buffer T+Surfactant (cat#R92TC-1, Meso Scale Discovery) is then added, and pFAK-397 levels quantified using a Meso Scale Discovery SECTOR Imager 6000 instrument.

T1 sequence (P35916 798-1298 isoform P35916-1): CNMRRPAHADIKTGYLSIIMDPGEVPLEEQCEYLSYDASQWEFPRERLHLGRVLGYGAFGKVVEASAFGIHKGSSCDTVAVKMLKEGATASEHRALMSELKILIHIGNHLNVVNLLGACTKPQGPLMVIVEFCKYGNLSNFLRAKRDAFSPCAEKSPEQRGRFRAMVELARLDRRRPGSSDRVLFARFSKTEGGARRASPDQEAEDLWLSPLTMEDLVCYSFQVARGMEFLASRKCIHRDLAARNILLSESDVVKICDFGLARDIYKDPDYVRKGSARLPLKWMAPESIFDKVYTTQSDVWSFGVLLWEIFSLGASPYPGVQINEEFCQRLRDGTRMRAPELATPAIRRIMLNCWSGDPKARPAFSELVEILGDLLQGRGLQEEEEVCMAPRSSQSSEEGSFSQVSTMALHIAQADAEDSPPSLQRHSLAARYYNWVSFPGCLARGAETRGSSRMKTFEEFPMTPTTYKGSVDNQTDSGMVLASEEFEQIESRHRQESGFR
T2 sequence (P35916 25-1363): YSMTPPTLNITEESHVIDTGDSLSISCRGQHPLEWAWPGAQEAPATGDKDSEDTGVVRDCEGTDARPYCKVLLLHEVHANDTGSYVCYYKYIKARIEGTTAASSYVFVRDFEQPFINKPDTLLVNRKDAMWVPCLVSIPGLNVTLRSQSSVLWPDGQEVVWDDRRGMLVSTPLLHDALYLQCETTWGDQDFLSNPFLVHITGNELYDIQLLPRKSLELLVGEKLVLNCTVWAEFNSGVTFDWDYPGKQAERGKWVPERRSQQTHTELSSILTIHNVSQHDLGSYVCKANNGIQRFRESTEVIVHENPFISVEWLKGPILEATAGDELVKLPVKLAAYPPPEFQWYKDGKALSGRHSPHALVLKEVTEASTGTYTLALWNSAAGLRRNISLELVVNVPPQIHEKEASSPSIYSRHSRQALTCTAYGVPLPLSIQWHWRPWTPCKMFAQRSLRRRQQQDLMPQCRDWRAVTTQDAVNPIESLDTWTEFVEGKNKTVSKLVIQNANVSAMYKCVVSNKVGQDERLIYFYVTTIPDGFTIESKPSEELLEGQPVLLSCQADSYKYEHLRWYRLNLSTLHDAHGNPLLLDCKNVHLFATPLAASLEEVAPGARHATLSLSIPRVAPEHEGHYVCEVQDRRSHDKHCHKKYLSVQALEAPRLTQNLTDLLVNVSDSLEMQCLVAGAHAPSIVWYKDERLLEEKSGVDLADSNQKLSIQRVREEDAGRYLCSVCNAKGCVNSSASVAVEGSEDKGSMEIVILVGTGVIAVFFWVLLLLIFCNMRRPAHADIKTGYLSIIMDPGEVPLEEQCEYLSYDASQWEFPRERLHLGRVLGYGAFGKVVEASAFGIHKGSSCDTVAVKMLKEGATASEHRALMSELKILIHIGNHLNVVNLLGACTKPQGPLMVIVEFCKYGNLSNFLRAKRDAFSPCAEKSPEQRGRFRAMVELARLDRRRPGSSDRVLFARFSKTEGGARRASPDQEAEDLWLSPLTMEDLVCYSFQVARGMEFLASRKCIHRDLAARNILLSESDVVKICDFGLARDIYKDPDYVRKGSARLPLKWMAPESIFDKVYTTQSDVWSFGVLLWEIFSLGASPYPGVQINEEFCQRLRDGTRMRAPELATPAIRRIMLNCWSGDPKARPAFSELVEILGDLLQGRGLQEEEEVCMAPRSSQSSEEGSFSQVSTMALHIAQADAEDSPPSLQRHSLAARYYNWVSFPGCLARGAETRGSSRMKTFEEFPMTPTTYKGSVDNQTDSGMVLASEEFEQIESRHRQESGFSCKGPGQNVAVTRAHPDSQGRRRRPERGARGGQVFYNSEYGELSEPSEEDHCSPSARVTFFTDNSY
T3 sequence (Q05397 2-1052 limits assumed, stated change not applied): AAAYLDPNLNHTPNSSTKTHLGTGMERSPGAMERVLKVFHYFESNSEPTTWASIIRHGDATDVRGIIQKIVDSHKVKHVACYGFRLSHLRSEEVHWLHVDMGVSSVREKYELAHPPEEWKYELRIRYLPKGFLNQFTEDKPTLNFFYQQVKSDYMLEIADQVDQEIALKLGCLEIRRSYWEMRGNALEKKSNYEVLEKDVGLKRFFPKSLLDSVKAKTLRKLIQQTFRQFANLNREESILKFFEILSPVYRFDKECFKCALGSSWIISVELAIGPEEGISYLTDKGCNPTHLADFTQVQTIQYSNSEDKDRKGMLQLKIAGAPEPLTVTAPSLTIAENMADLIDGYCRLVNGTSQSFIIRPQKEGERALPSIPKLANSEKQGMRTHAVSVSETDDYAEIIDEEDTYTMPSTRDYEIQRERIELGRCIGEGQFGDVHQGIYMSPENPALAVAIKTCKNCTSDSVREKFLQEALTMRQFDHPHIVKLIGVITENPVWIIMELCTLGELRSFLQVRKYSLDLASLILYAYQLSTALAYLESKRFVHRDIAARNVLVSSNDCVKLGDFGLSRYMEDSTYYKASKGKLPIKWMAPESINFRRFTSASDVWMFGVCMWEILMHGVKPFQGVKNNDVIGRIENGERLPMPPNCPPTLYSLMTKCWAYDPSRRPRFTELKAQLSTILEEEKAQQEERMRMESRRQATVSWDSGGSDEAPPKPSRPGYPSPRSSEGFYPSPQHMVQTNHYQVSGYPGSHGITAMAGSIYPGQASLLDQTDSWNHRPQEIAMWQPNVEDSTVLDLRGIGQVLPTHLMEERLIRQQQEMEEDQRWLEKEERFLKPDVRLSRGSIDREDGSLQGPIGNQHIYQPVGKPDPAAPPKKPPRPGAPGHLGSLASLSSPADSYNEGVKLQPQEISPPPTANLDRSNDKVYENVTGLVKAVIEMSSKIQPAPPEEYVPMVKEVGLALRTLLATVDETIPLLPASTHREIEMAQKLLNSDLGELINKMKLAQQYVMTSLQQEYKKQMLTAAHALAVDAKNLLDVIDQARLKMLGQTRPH

Row | SMILES | IC50 [1] [nM] | IC50 (VEGFR3) [nM] | IC50 (P397Y-FAK) [nM]
1 | NC(=O)Cc1cc(F)ccc1CCc1nc(Nc2ccc(C3CCNCC3)cc2)ncc1C(F)(F)F [Compound 9, 2-(5-fluoro-2-(2-(2-((4-(piperidin-4-yl)phenyl)amino)-5-(trifluoromethyl)pyrimidin-4-yl)ethyl)phenyl)acetamide] | 68 | 379 | 
2 | NC(=O)Cc1ccccc1CCc1nc(Nc2ccc(C3CCNCC3)nc2)ncc1C(F)(F)F [Compound 13, 2-(2-(2-(2-((6-(piperidin-4-yl)pyridin-3-yl)amino)-5-(trifluoromethyl)pyrimidin-4-yl)ethyl)phenyl)acetamide] | 67 | 1030 | 
3 | NC(=O)Cc1ccccc1CCc1nc(Nc2ccc(CNCCO)cc2)ncc1C(F)(F)F [Compound 19, 2-(2-(2-(2-((4-(((2-hydroxyethyl)amino)methyl)phenyl)amino)-5-(trifluoromethyl)pyrimidin-4-yl)ethyl)phenyl)acetamide] | 70 |  | 7
4 | Cc1ccc(CC(N)=O)c(CCc2nc(Nc3ccc(C4CCNCC4)cc3)ncc2C(F)(F)F)c1 [Compound 21, 2-(4-methyl-2-(2-(2-((4-(piperidin-4-yl)phenyl)amino)-5-(trifluoromethyl)pyrimidin-4-yl)ethyl)phenyl)acetamide] | 44 |  | 119
5 | Cc1cnc(Nc2ccc(C(C)N)cc2)nc1CCc1ccccc1CC(N)=O (stereo not drawn) [Compound 34, 2-(2-(2-(2-((4-(1-aminoethyl)phenyl)amino)-5-methylpyrimidin-4-yl)ethyl)phenyl)acetamide] | 71 |  | 
6 | NC(=O)Cc1ccccc1CCc1nc(Nc2cnn(C3CCNCC3)c2)ncc1C(F)(F)F [Compound 35, 2-(2-(2-(2-((1-(piperidin-4-yl)-^1H-pyrazol-4-yl)amino)-5-(trifluoromethyl)pyrimidin-4-yl)ethyl)phenyl)acetamide] | 23 |  | 
7 | CN1CCC(n2cc(Nc3ncc(C(F)(F)F)c(CCc4ccccc4CC(N)=O)n3)cn2)CC1 [Compound 36, 2-(2-(2-(2-((1-(1-methylpiperidin-4-yl)-^1H-pyrazol-4-yl)amino)-5-(trifluoromethyl)pyrimidin-4-yl)ethyl)phenyl)acetamide] | 50 |  | 
8 | CC(N)c1cccc(Nc2ncc(Cl)c(CCc3ccccc3CC(N)=O)n2)c1 (stereo not drawn) [Compound 38, 2-(2-(2-(2-((3-(1-aminoethyl)phenyl)amino)-5-chloropyrimidin-4-yl)ethyl)phenyl)acetamide] | 76 |  | 
9 | CC(=O)NC(C)c1cccc(Nc2ncc(Cl)c(CCc3ccccc3CC(N)=O)n2)c1 (stereo not drawn) [Compound 39, 2-(2-(2-(2-((3-(1-acetamidoethyl)phenyl)amino)-5-chloropyrimidin-4-yl)ethyl)phenyl)acetamide] | 10 |  | 
10 | CC(N)c1ccc(Nc2ncc(C(F)(F)F)c(CCc3ccccc3CC(N)=O)n2)cn1 (stereo not drawn) [Compound 40, 2-(2-(2-(2-((6-(1-Aminoethyl)pyridin-3-yl)amino)-5-(trifluoromethyl)pyrimidin-4-yl)ethyl)phenyl)acetamide] | 187 |  | 
11 | NC(=O)Cc1cccc(F)c1CCc1nc(Nc2ccc(C3CCNCC3)cc2)ncc1C(F)(F)F [Compound 41] | 26 |  | 
